ChEMBL document CHEMBL5143734, “Seco-Lupane Triterpene Derivatives Induce Ferroptosis through GPX4/ACSL4 Axis and Target Cyclin D1 to Block the Cell Cycle” (J Med Chem, 2022)
Calls of active or inactive are those of the source. No cut-off for these calls is given here.

Assays:
HepG2 [1] = assay: Induction of cell death in human HepG2 cells measured after 48 hrs by Annexin V-FITC/PI double staining based flow cytometry analysis; assay type: functional; settings: dose 0.5-2 µM, DDE = dose-dependent effect
HepG2 [2] = assay: Cytotoxicity against human HepG2 cells assessed as reduction in cell viability incubated for 48 hrs by CCK-8 assay; assay type: functional, cell-based; settings: dose 0.78125-50 µM, DDE = dose-dependent effect
MCF7 = assay: Cytotoxicity against human MCF7 cells assessed as reduction in cell viability by CCK-8 assay; assay type: functional, cell-based
A549 = assay: Cytotoxicity against human A549 cells assessed as reduction in cell viability by CCK-8 assay; assay type: functional, cell-based
HepG2 [3] = assay: Cytotoxicity against human HepG2 cells assessed as reduction in cell viability by CCK-8 assay; assay type: functional, cell-based
PC-3M = assay: Cytotoxicity against human PC-3M cells assessed as reduction in cell viability by CCK-8 assay; assay type: functional, cell-based
HepG2 [4] = assay: Antiinvasive activity in human HepG2 cells assessed as inhibition of cell invasion measured after 24 hrs by crystal violet staining based transwell assay; assay type: functional; settings: dose 0.125-0.5 µM, DDE = dose-dependent effect
HepG2 [5] = assay: Antimigratory activity against human HepG2 cells assessed as reduction in cell migration measured after 24 hrs by crystal violet staining based transwell assay; assay type: functional; settings: dose 0.125-0.5 µM, DDE = dose-dependent effect
HepG2 [6] = assay: Induction of ferroptosis in human HepG2 cells assessed as increase in ACSL4 mRNA expression measured after 6 to 36 hrs by qRT-PCR analysis; assay type: functional, cell-based; settings: dose 0.25-1 µM, time 6-36 hrs, DDE = dose-dependent effect
HepG2 [7] = assay: Induction of ferroptosis in human HepG2 cells assessed as decrease in GPX4 mRNA expression measured after 36 hrs by qRT-PCR analysis; assay type: functional, cell-based; settings: dose […], DDE = dose-dependent effect
HepG2 [8] = assay: Induction of ferroptosis in human HepG2 cells assessed as log2 fold decrease in GPX4 mRNA expression by qRT-PCR analysis; assay type: functional
HepG2 [9] = assay: Induction of ferroptosis in human HepG2 cells assessed as log2 fold increase in ACSL4 mRNA expression by qRT-PCR analysis; assay type: functional
HepG2 [10] = assay: Induction of ferroptosis in human HepG2 cells assessed as increase in ACSL4 protein expression at 2 uM by Western blot analysis; assay type: functional, cell-based; settings: time 6-36 hrs, TDE = time-dependent effect
HepG2 [11] = assay: Induction of ferroptosis in human HepG2 cells assessed as decrease in GPX4 protein expression at 2 uM measured after 6 hrs by Western blot analysis; assay type: functional, cell-based
HepG2 [12] = assay: Induction of ferroptosis in human HepG2 cells assessed as decrease in GPX4 protein expression at 2 uM by Western blot analysis; assay type: functional, cell-based; settings: time 6-36 hrs, TDE = time-dependent effect
HepG2 [13] = assay: Induction of ferroptosis in human HepG2 cells assessed as increase in intracellular ROS level incubated for 48 hrs by DCFH-DA staining based flow cytometry analysis; assay type: functional, cell-based; settings: dose 0.25-1 µM, DDE = dose-dependent effect
HepG2 [14] = assay: Induction of ferroptosis in human HepG2 cells assessed as increased in Fe2+ level incubated for 36 hrs; assay type: functional, cell-based; settings: dose 0.5-2 µM, DDE = dose-dependent effect
HepG2 [15] = assay: Induction of ferroptosis in human HepG2 cells assessed as decreased in GSH level incubated for 36 hrs; assay type: functional, cell-based; settings: dose 0.5-2 µM, DDE = dose-dependent effect
HepG2 [16] = assay: Downregulation of Cyclin B1 mRNA expression in human HepG2 cells assessed as fragments per kilo base of exon per million mapped fragments by RT-qPCR analysis (reference value: 54.40 to 58.62); assay type: functional
HepG2 [17] = assay: Downregulation of Cyclin D1 mRNA expression in human HepG2 cells assessed as fragments per kilo base of exon per million mapped fragments by RT-qPCR analysis (reference value: 59.65 to 61.74); assay type: functional
[18] = Upregulation of Cyclin E1 mRNA expression in human HepG2 cells assessed as fragments per kilo base of exon per million mapped fragments […] (reference value: 11.43 to 14.86); assay type: functional
HepG2 [19] = assay: Downregulation of Cyclin A2 mRNA expression in human HepG2 cells at 0.5 to 2.0 uM by RT-qPCR analysis; assay type: functional, cell-based; settings: dose 0.5-2 µM, time 6-36 hrs, TDE = time-dependent effect
HepG2 [20] = assay: Downregulation of Cyclin B1 mRNA expression in human HepG2 cells at 0.5 to 2.0 uM by RT-qPCR analysis; assay type: functional, cell-based; settings: dose 0.5-2 µM, time 6-36 hrs, TDE = time-dependent effect
HepG2 [21] = assay: Downregulation of Cyclin D1 protein expression in human HepG2 cells measured at 2 uM by Western blot analysis; assay type: functional, cell-based; settings: time 6-36 hrs, TDE = time-dependent effect
[22] = biological target: G1/S-specific cyclin-D1 (Homo sapiens) (UniProt P24385); assay: Binding affinity to Cyclin D1 in human HepG2 cells by laser confocal microscopy; assay type: cell-based
HepG2 [23] = assay: Inhibition of Cyclin D1 in human HepG2 cells assessed as reduction in E2F expression by Western blot analysis; assay type: cell-based; settings: dose 0.5-2 µM, DDE = dose-dependent effect
HepG2 [24] = assay: Inhibition of Cyclin D1 in human HepG2 cells assessed as reduction in Rb phosphorylation by Western blot analysis; assay type: cell-based; settings: dose 0.5-2 µM, DDE = dose-dependent effect
HepG2 [25] = assay: Cytotoxicity against human HepG2 cells assessed as reduction in cell viability at 10 uM relative to control; assay type: functional
HepG2 [26] = assay: Induction of ferroptosis in human HepG2 cells assessed as downregulation of GPX4 mRNA expression by measuring fragments per kilo base of exon per million mapped fragments by qRT-PCR analysis (reference value: 298.18 to 302.30); assay type: functional
HepG2 [27] = assay: Induction of ferroptosis in human HepG2 cells assessed as upregulation of ACSL4 mRNA expression by measuring fragments per kilo base of exon per million mapped fragments […] (reference value: 75.85 to 97.44); assay type: functional
HepG2 [28] = assay: Cytotoxicity against human HepG2 cells assessed as reduction in cell viability at 1.5625 uM incubated for 48 hrs by CCK-8 assay relative to control; assay type: functional
HepG2 [29] = assay: Cytotoxicity against human HepG2 cells assessed as reduction in cell viability at 50 uM incubated for 48 hrs by CCK-8 assay; assay type: functional, cell-based
HepG2 [30] = assay: Antiproliferative activity against human HepG2 cells incubated for 24 to 48 hrs by Edu staining based fluorescence microscopy assay; assay type: functional, cell-based; settings: dose 0.125-2 µM, time 24-48 hrs, DDE = dose-dependent effect
HepG2 [31] = assay: Antiproliferative activity against human HepG2 cells at 0.125 to 2 uM by Edu staining based fluorescence microscopy assay; assay type: functional, cell-based; settings: dose 0.125-2 µM, time 24-48 hrs, TDE = time-dependent effect
HepG2 [32] = assay: Induction of ferroptosis in human HepG2 cells assessed as upregulation of ACSL4 mRNA expression at 0.25 to 1 uM by qRT-PCR analysis; assay type: functional, cell-based; settings: dose 0.25-1 µM, time 24-48 hrs, TDE = time-dependent effect
HepG2 [33] = assay: Induction of ferroptosis in human HepG2 cells assessed as increase in intracellular ROS level incubated for 48 hrs by DCFH-DA staining based fluorescence microscopic analysis; assay type: functional, cell-based; settings: dose 0.25-1 µM, DDE = dose-dependent effect
HepG2 [34] = assay: Induction of cell cycle arrest in human HepG2 cells assessed as increase in G1 phase at 0.5 to 2 uM; assay type: functional, cell-based; settings: dose 0.5-2 µM
HepG2 [35] = assay: Induction of cell cycle arrest in human HepG2 cells assessed as decrease in cells at S phase at 0.5 to 2 uM; assay type: functional, cell-based; settings: dose 0.5-2 µM
HepG2 [36] = assay: Induction of cell cycle arrest in human HepG2 cells assessed as decrease in cells at G2 phase at 0.5 to 2 uM; assay type: functional, cell-based; settings: dose 0.5-2 µM

G1/S-specific cyclin-D1 (Homo sapiens), sequence (P24385 whole entry): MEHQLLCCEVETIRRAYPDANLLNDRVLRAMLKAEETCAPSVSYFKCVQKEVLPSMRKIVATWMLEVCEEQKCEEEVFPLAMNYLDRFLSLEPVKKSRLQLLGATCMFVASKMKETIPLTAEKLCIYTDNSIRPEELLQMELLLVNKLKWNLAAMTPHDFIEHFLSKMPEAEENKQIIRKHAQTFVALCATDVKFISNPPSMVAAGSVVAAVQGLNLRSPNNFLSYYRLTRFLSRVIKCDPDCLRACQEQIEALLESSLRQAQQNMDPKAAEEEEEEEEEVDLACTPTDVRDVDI

## C=C(C)[C@@H]1CC[C@]2(C(=O)OCCCCCn3cc(CCN)c4ccccc43)CC[C@]3(C)[C@H](C[C@H]4OC(=O)C[C@@H](O)[C@]5(C)[C@@H]4[C@@]3(C)CC[C@H]5C(=C)C)[C@@H]12
HepG2 [1]
  Activity: Dde
HepG2 [2]
  Activity: Dde
MCF7
  IC50: 5.34 µM
A549
  IC50: 5.44 µM
HepG2 [3]
  IC50: 970 nM
PC-3M
  IC50: 3.93 µM
HepG2 [4]
  Activity: Dde
HepG2 [5]
  Activity: Dde
HepG2 [6]
  Activity: Dde
HepG2 [7]
  Activity: Dde
HepG2 [8]
  log2FC: -0.29
HepG2 [9]
  log2FC: 0.83
HepG2 [10]
  Activity: Tde
HepG2 [11]
  Activity: Active
HepG2 [12]
  Activity: Tde
HepG2 [13]
  Activity: Dde
HepG2 [14]
  Activity: Dde
HepG2 [15]
  Activity: Dde
HepG2 [16]
  Activity: 39.59
HepG2 [17]
  Activity: 53.4
[18]
  Activity: 14.11
HepG2 [19]
  Activity: Tde
HepG2 [20]
  Activity: Tde
HepG2 [21]
  Activity: Tde
[22]
  Activity: Active
HepG2 [23]
  inhibition: Dde
HepG2 [24]
  inhibition: Dde
HepG2 [25]
  Activity: 20.15%
HepG2 [26]
  Activity: 221.77
HepG2 [27]
  Activity: 132.19
HepG2 [28]
  inhibition at 1.562 µM: 95.1%
HepG2 [29]
  Activity: Active
HepG2 [30]
  Activity: Dde
HepG2 [31]
  Activity: Tde
HepG2 [32]
  Activity: Tde
HepG2 [33]
  Activity: Dde
HepG2 [34]
  Activity: Active
HepG2 [35]
  Activity: Active
HepG2 [36]
  Activity: Active
